From PMC5641330, “Prediction of a Therapeutic Dose for Buagafuran, a Potent Anxiolytic Agent by Physiologically Based Pharmacokinetic/Pharmacodynamic Modeling Starting from Pharmacokinetics in Rats and Human” (Frontiers in Pharmacology, 2017)
Where two headings read alike, the source gives them in different places.

Key:
[1] = Clearance prediction from incubation with human liver microsomes; assay type: in vitro ADME
Protocol: Drug disappearance t1/2 value measurements in rat and human microsomes were used to determine the in vitro apparent intrinsic clearance value (CLintapp) of buagafuran acquired using Then CLintapp was converted to in vivo intrinsic clearance (CLint).
Rat or human liver microsomal incubation (0.5 mg/mL) was carried out at 37°C in a mixture of 0.5 mL in 0.05 M Tris–HCl buffer (pH 7.4). Buagafuran (2 μM) was added to the incubation system. The addition of NADPH (1 mM) initiated the reaction, then the reaction was incubated for 0, 10, 20, 30, 45, and 60 min. The equal volume of acetonitrile containing the IS (10 ng/mL) was added to stop the reaction. The mixtures were centrifuged at 16000 g for 5 min and the supernatants were determined using LC-MS/MS method.
The natural log (In) of buagafuran concentration versus time was plotted and the slope of the best fit line of was determined by the data (k). This was converted into in vitro t1/2 where t1/2 = In 2/k. CLintapp was calculated by the following equation: […]
Where M is the microsomal protein concentration in the incubation. CLint by liver was calculated from equation 2:
(2) CLint=CLint(app)×mgmicrosome/gliver×liverweight(g)/bodyweight(kg)
Where a value of 45 mg of protein per gram of liver tissue was used for both rat and human, and a liver weight of 40 and 21 g per kg were applied to rat and human, respectively ([Hosea et al., 2009]). […]

[2] = set-up: method as in Zhang, 1997; Li et al., 2001; Li, 2010; details: human liver microsomes, ref Zhang, 1997, Li et al., 2001, 2010; cited from earlier work
[3] = Brain concentrations in the rat after oral dosing (observed); assay type: in vivo, male Wistar rats; details: oral 4 mg/kg
Source text: (§1) Animal Care and Welfare Committee of Institute of Materia Medica, Chinese Academy of Medical Sciences approved all animal protocols (1 Xian nong tan Street, Xicheng District, Beijing, China; Permission Number: SYXK 2014-0023, Expiration: 06 Aug, 2019). All animal programs are in compliance with the Guide for the Care and Use of Laboratory Animals issued by Beijing Association on Laboratory Animal Care (BALAC). Buagafuran formulation of PVP was suspended in deionized water and was orally administered at 4 or 8 mg/kg to male Wistar rats (weighing 180–200 g). Brain samples treated with the dose of 4 mg/kg and blood samples of both treatments were collected over 3 h. Plasma samples were obtained by centrifugation, and brain tissues were homogenized in a threefold volume (w/v) of saline. Buagafuran concentrations in plasma and brain samples were quantitated by an LC-MS/MS method ([Yang et al., 2011]).
A volume of 200 μL plasma or tissue homogenate was mixed with 100 μL IS (10 ng/mL) followed by addition of 2 mL hexane. After vortexing for 2 min, the mixture was centrifuged for 5 min at 3000 g. The extracted solution was combined and evaporated to dryness at 25°C. […] The outlet of the column was detected in positive ionization electrospray mode with selected reaction monitoring. The monitored transitions of buagafuran and IS were m/z 245→105 and 500→142, respectively. […]

[4] = Plasma PK in the rat after oral dosing (observed); assay type: in vivo, male Wistar rats; details: male, Wistar; for AUC(0-t): read-out: AUC0-t Observed; for AUC(0-inf): read-out: AUC0-∞ Observed; for MRT inf: read-out: MRT(0-∞) Observed
Source text: as §1
A volume of 200 μL plasma or tissue homogenate was mixed with 100 μL IS (10 ng/mL) followed by addition of 2 mL hexane. After vortexing for 2 min, the mixture was centrifuged for 5 min at 3000 g. The extracted solution was combined and evaporated to dryness at 25°C. The residues were reconstituted in 80 μL of 80% methanol. The chromatographic separation and mass spectrometric analysis was performed on a LC/TSQ Quantum Access mass spectrometer (Thermo Finnigan, San Jose, CA, United States). Ten microliter of the sample was injected onto an Agilent Eclipse Plus C18 analytical column (3.5 μm, 50 mm × 2.1 mm) and then buagafuran and IS were eluted with a gradient of acetonitrile (phase B) and water containing 0.1% v/v formic acid (phase A). The elution program was applied as follows: 50% B for 0–0.5 min, 50% B→97% B for 0.6–5.5 min, 50% B for 5.6–7.6 min. The outlet of the column was detected in positive ionization electrospray mode with selected reaction monitoring. The monitored transitions of buagafuran and IS were m/z 245→105 and 500→142, respectively. The retention time (RT) of buagafuran was 6.13 min. The linear range of the calibration curve was 0.5–800 ng/mL.
Pharmacokinetic parameters were determined with a non-compartmental model using WinNonlin v 6.0 (Pharsight Corporation, Mountain View, CA, United States). The area under the compound concentration versus time curve from time zero to the last time point (AUC0-t) and extrapolated to infinity (AUC0-∞) and the peak plasma concentration (Cmax) were calculated.

CCCCC1=CCC[C@@]2(C)CC[C@@H]3C[C@]12OC3(C)C [buagafuran]
CLhep predicted ([1]; from human liver microsomes, well-stirred model): 7.7 mL/min/kg | microsomal CLint at 2 μM ([1]; pH 7.4, human liver microsomes 0.5 mg/mL, 2 μM, read-out: in vitro CLintapp): 22 µL/min/mg | extraction ratio [2]: about 50% | Tmax ([3]; male, Wistar, brain, read-out: time of maximum concentrations in brain): 15 to 30 min | time at which brain concentrations were detected [3]: 5 min | Cmax ([4]; oral 4 mg/kg): 5.31 ng/mL | AUC(0-t) ([4]; oral 4 mg/kg): 6.69 ng·h/mL | AUC(0-inf) ([4]; oral 4 mg/kg): 11.4 ng·h/mL | MRT inf ([4]; oral 4 mg/kg): 212 min | Tmax ([4]; oral 4 mg/kg, read-out: Tmax Observed): 15 min | Cmax ([4]; oral 8 mg/kg): 10.6 ng/mL | AUC(0-t) ([4]; oral 8 mg/kg): 14.2 ng·h/mL | AUC(0-inf) ([4]; oral 8 mg/kg): 15.1 ng·h/mL | MRT inf ([4]; oral 8 mg/kg): 72.6 min | Tmax ([4]; single oral dosing 4 and 8 mg/kg, read-out: time of peak plasma concentration (converted)): 15 min
